Measured values: PMC5974752, “Bax/Tubulin/Epithelial-Mesenchymal Pathways Determine the Efficacy of Silybin Analog HM015k in Colorectal Cancer Cell Growth and Metastasis” (Frontiers in Pharmacology, 2018)
Like-named read-outs stand apart in the source and are kept apart here.

Assays:
HCT116 cells [1] = experiment: Colony formation assay; type: cell-based, human; conditions: 2 and 4 μM, 12 h incubation, colonies 10–14 days, vs vehicle control
Protocol: In this assay, HCT116 cells were seeded in 6 well plates at a density of 250,000 cells/plate and allowed to grow overnight. Compounds 15j and 15k (0, 2 or 4 μM) were added the following day. After 12 h of incubation, the medium was discarded and cells were trypsinized with 0.25% trypsin, 2.21 mM EDTA, 1X, harvested, counted and reseeded in 6 well plates at a low density (500 cell/well). The cells were allowed to form colonies for 10–14 days at 37°C, with the medium being changed every other day. Subsequently, methanol was used to fix the colonies formed in each plate, followed by dyeing the colonies with 0.1% crystal violet dye for 30 min. Finally, colonies were viewed and counted under an EVOS microscope (Themo Fisher Scientific, Wayne, MI, USA). The colony formation rate equation was applied for each compound: Colony formation rate = number of colonies/number of seeded cells × 100 %.

β-catenin = experiment: Western blot in HCT116 cells (nuclear); type: cell-based, human; conditions: 4 μM, p < 0.001 vs control
Protocol: HCT116 cells were lysed to obtain cytoplasmic and nuclear protein fractions, according to the protocol used in previous publications (Alhadidi and Shah, [2017]). Briefly, the cells were seeded in and incubated with 15k for overnight at 4μM. The cells were washed using ice-cold PBS and scraped using a cell scraper and collected in 15ml tubes. The cells were centrifuged and the PBS was discarded and replaced with 400 μl of buffer A (10 mM HEPES, pH 7.9, 0.1 mM EDTA, 0.1 mM EGTA, 10 mM KCl, 1 mM dithiothreitol, and 0.5 mM phenylmethylsulfonyl fluoride) in each tube. The cells were allowed to swell under in the buffer for 15 min on ice. Subsequently, 0.1% Nonidet P-40 was added to each suspension for 1 min to disturb the plasma membrane. The nuclei were precipitated by centrifugation at 13,000 rpm for 1 min at 4°C. The cytoplasmic proteins were collected in the supernatant and stored at −80°C. Two hundred μl of Buffer B (20 mM HEPES, pH 7.9, 1 mM EDTA, 1 mM EGTA, 400 mM NaCl, 1 mM dithiothreitol, and 1 mM phenylmethylsulfonyl fluoride) was added to the pellets and left for 30 min on ice with periodic mixing. […] The bicinchoninic acid (BCA) quantification assay was used to determine the concentration of protein in the cell extracts. […] Finally, proteins were quantified using the image J software. Data were calculated as ratios to β-actin.

HCT116 cells [2] = experiment: IncuCyte Cytotox green real time cell death; type: cell-based, human
Protocol: For real time quantification of cell death, the Incucyte Cytotox green reagent was used. […] The plasma membrane integrity is decreased in unhealthy cells, allowing entry of the IncuCyte Cytotox reagent, yielding a 100- to 1,000-fold increase in fluorescence upon binding to deoxyribonucleic acid (DNA) (at an excitation maximum of 491 nm and an emission maximum of 509 nm). The HCT116 cells were seeded at a density of 1,000 cell/well and allowed to grow overnight. […] The cells were then incubated in a IncuCyte Zoom live cell imaging apparatus and pictures were taken every 2 h for up to 50 h.The IncuCyte® integrated analysis software was used to quantify the fluorescent objects and minimize the background fluorescence (IncuCyte ZOOM version 2016A, Essen BioScience, Ann Arbor, MI 48108, USA).

CRL-1459 = experiment: MTT assay, normal cell line; type: cell-based; conditions: 72 h incubation, mean ± SD of three experiments
Protocol: (§1) The 3-(4,5-dimethylthiazol-2-yl)-2,5-diphenyltetrazolium bromide (MTT) assay was used to determine the sensitivity of the different CRC cells to the novel silybin derivatives (Hussein et al., [2017]; Manivannan et al., [2017]). The cells were seeded at a density of 4,000–5,000 cells/well in 96 well plates and incubated with serial dilutions of the compounds (0, 0.1, 0.3, 1, 3, 10, 30, and 100 μM). The MTT dye (4 mg/ml) was added after 72 h of incubation and incubated with the cells for an additional 4 h at 37°C. Following incubation, the media was discarded and the formazan crystals were dissolved by adding 100 μL of DMSO to each well. A DTX 880 multimode detector (Beckman Coulter Life, Indianapolis IN, USA) was used to determine the absorbance readings at a wavelength of 570 nm. The IC50 values were determined based on 3 separate experiments, with each experiment done in triplicate. The selectivity of the compounds was determined by comparing their cytotoxicity for CRC to normal epithelial cell lines (CHO, and CRL1459).

HCT116 cell = experiment: Cell morphology (EMT reversal); type: cell-based, human; conditions: HCT116 after incubation with 15k
Protocol: The aberrant, over-activation of embryonic signaling pathways, including Wnt/β-catenin/epithelial-mesenchymal transition (EMT), is involved in the development, progression, metastasis, and resistance of CRC (Du and Shim, [2016]). […] To test this hypothesis, the morphology of HCT116 cell was observed following incubation with 15k. […] We then determined the efficacy of compound 15k on the expression of (1) β-catenin; (2) E-cadherin, and (3) N-cadherin in CRC cells.

CHO = experiment: MTT assay, normal cell line; type: cell-based, Chinese hamster; conditions: Cricetulus griseus, 72 h incubation, mean ± SD of three experiments
Protocol: as §1

HCT116 = experiment: MTT assay; type: cell-based, human; conditions: Homo sapiens, HCT-116, MTT
Protocol: as §1

HCT116 cells [3] = experiment: Detection of reactive oxygen species (H2DCF-DA); type: cell-based, human; conditions: 1, 2 and 4 μM, 24 and 48 h, vs vehicle
Protocol: H2DCF-DA was used as previously described (Amawi et al., [2017c]). The cells that had been incubated with the test compound were further incubated with 3 μM of the H2DCF-DA working solution for 30 min at 37°C. The fluorescence level of oxidized DCF (excitation at 485 nm and emission at 535 nm) was detected under EVOS digital fluorescent microscope at 40x.

In the case of `O=C(/C=C/c1cccc(OCc2ccccc2)c1)c1ccc(O)cc1` [Compound 15k], the colony formation rate (HCT116 cells [1]) is reported as “decreased significantly”, the “nuclear β-catenin full-length protein (p1 and p2)” value (β-catenin) is reported as “induced the cleavage of the full-length protein” and the “time of significant difference in the number of dead cells” value (HCT116 cells [2]; 2 μM, vs vehicle) is reported as 24 h. The “time of significant increase in cell death” value (HCT116 cells [2]; 4 and 8 μM, vs control cells) was 12 h, the IC50 (CRL-1459) was 8.5 ± 0.7 µM and the cell morphology (HCT116 cell) was “significantly changed the morphology of the cells from mesenchymal to a more epithelial-like appearance”. For the same molecule, the IC50 (CHO) was 8.1 ± 1.2 µM, the IC50 (HCT116; 72 h incubation, mean ± SD of three experiments, read-out: IC50 ± SD, Colon HCT116) was 0.9 µM and the IC50 (HCT116; comparison with knockout cells, read-out: IC50, HCT116 wild type) was 0.89 µM. The “ROS formation (oxidized DCF fluorescence)” value (HCT116 cells [3]) was “significantly increased ROS formation”.
